Reference: publication PMC10235067, “Increased renal elimination of endogenous and synthetic pyrimidine nucleosides in concentrative nucleoside transporter 1 deficient mice” (Nature Communications, 2023)
“And” between values parts separate entries of the source, which are not always exact repeats. Identical values can stand only once.

Assay: Gemcitabine plasma pharmacokinetics in Slc28a1+/+ and Slc28a1-/- mice
[1] = dFdU in plasma, KO mice, iv gemcitabine 50mg/kg, per mouse
[2] = dFdU in plasma, WT mice, iv gemcitabine 50mg/kg, per mouse

O=c1ccn([C@@H]2O[C@H](CO)[C@@H](O)C2(F)F)c(=O)[nH]1 [dFdU, 2′,2′-difluorodeoxyuridine]
AUC (Last) (Slc28a1-/- mice, plasma, single i.v. dFdC 50 mg/kg): 1453.8 ± 31.9 ng x min/mL | AUCINF_D_obs [1]: 145.293 kg·ng·min/mL/mg and 247.451 kg·ng·min/mL/mg and 151.268 kg·ng·min/mL/mg | AUCINF_D_pred [1]: 145.176 kg·ng·min/mL/mg and 248.596 kg·ng·min/mL/mg and 151.889 kg·ng·min/mL/mg | AUCINF_obs [1]: 12372.5 ng·min/mL and 7563.4 ng·min/mL | AUCINF_pred [1]: 12429.8 ng·min/mL and 7594.45 ng·min/mL | AUC_%Back_Ext_obs [1]: 27.8053% and 16.048% and 18.9747% | AUC_%Back_Ext_pred [1]: 27.8277% and 15.9741% and 18.8972% | AUC_%Extrap_obs [1]: 3.511% and 11.2661% and 5.257% | AUC_%Extrap_pred [1]: 3.433% and 11.6749% and 5.644% | AUCall [1]: 7482.64 ng·min/mL and 12659.7 ng·min/mL and 8852.13 ng·min/mL and 5047.42 ng·min/mL and 7806.56 ng·min/mL and 6947.11 ng·min/mL | AUClast [1]: 7009.6 ng·min/mL and 10978.6 ng·min/mL and 5995.89 ng·min/mL and 3337.67 ng·min/mL and 7165.79 ng·min/mL and 6415.86 ng·min/mL | AUClast_D [1]: 140.192 kg·ng·min/mL/mg and 219.572 kg·ng·min/mL/mg and 119.918 kg·ng·min/mL/mg and 66.7534 kg·ng·min/mL/mg and 143.316 kg·ng·min/mL/mg and 128.317 kg·ng·min/mL/mg | AUMCINF_obs [1]: 73315.1 min*min*ng/mL and 188787 min*min*ng/mL and 94928.9 min*min*ng/mL | AUMCINF_pred [1]: 73092.7 min*min*ng/mL and 191216 min*min*ng/mL and 96149.2 min*min*ng/mL | AUMC_%Extrap_obs [1]: 13.2491% and 31.3337% and 16.4642% | AUMC_%Extrap_pred [1]: 12.9851% and 32.2062% and 17.5245% | AUMClast [1]: 63601.5 min*min*ng/mL and 129633 min*min*ng/mL and 47032.5 min*min*ng/mL and 25446 min*min*ng/mL and 79299.6 min*min*ng/mL and 72737 min*min*ng/mL | Cl_pred [1]: 413.291 L/h/kg and 241.36 L/h/kg and 395.026 L/h/kg | Clast [1]: 31.5362 ng/mL and 112.074 ng/mL and 380.831 ng/mL and 227.966 ng/mL and 42.718 ng/mL and 35.4167 ng/mL | Clast_pred [1]: 30.8142 ng/mL and 116.678 ng/mL and 46.0533 ng/mL | Cmax [1]: 399.844 ng/mL and 516.311 ng/mL and 478.159 ng/mL and 230.143 ng/mL and 315.127 ng/mL and 303.44 ng/mL | Cmax_D [1]: 7.997 kg·ng/mL/mg and 10.3262 kg·ng/mL/mg and 9.563 kg·ng/mL/mg and 4.603 kg·ng/mL/mg and 6.303 kg·ng/mL/mg and 6.069 kg·ng/mL/mg | HL_Lambda_z [1]: 5.606 min and 8.621 min and 6.452 min | Lambda_z [1]: 0.0804 min⁻¹ and 0.1074 min⁻¹ | MRTINF_obs [1]: 15.2585 min and 12.5511 min | MRTINF_pred [1]: 15.3837 min and 12.6605 min | MRTlast [1]: 11.8078 min and 7.844 min and 7.624 min and 11.0664 min and 11.3371 min | Tlast [1]: 30 min and 15 min | Tmax [1]: 5 min and 10 min and 15 min | Vss_obs [1]: 69.4601 L/kg and 61.663 L/kg and 82.9724 L/kg | Vss_pred [1]: 69.3609 L/kg and 61.8825 L/kg and 83.3534 L/kg | Vz_obs [1]: 55.6606 L/kg and 50.262 L/kg and 61.5323 L/kg | Vz_pred [1]: 55.7054 L/kg and 50.0305 L/kg and 61.2807 L/kg | AUCINF_D_obs [2]: 809.741 kg·ng·min/mL/mg and 249.152 kg·ng·min/mL/mg and 172.396 kg·ng·min/mL/mg and 377.161 kg·ng·min/mL/mg | AUCINF_D_pred [2]: 816.693 kg·ng·min/mL/mg and 238.149 kg·ng·min/mL/mg and 171.456 kg·ng·min/mL/mg and 377.935 kg·ng·min/mL/mg | AUCINF_obs [2]: 40487.1 ng·min/mL and 12457.6 ng·min/mL and 8619.8 ng·min/mL and 18858.1 ng·min/mL | AUCINF_pred [2]: 40834.7 ng·min/mL and 11907.4 ng·min/mL and 8572.82 ng·min/mL and 18896.7 ng·min/mL | AUC_%Back_Ext_obs [2]: 5.421% and 15.2704% and 19.786% and 11.9089% | AUC_%Back_Ext_pred [2]: 5.375% and 15.976% and 19.8944% and 11.8845% | AUC_%Extrap_obs [2]: 84.3044% and 33.9106% and 11.4334% and 37.4722% | AUC_%Extrap_pred [2]: 84.438% and 30.857% and 10.948% and 37.6002% | AUCall [2]: 4075.38 ng·min/mL and 9255.63 ng·min/mL and 10796.8 ng·min/mL and 8847.25 ng·min/mL and 15444.5 ng·min/mL and 12682.2 ng·min/mL | AUClast [2]: 2654.78 ng·min/mL and 6354.7 ng·min/mL and 8233.16 ng·min/mL and 7634.27 ng·min/mL and 11791.5 ng·min/mL and 11904.6 ng·min/mL | AUClast_D [2]: 53.0957 kg·ng·min/mL/mg and 127.094 kg·ng·min/mL/mg and 164.663 kg·ng·min/mL/mg and 152.685 kg·ng·min/mL/mg and 235.831 kg·ng·min/mL/mg and 238.093 kg·ng·min/mL/mg | AUMCINF_obs [2]: 3570423 min*min*ng/mL and 327900 min*min*ng/mL and 123838 min*min*ng/mL and 570014 min*min*ng/mL | AUMCINF_pred [2]: 3606313 min*min*ng/mL and 297795 min*min*ng/mL and 121856 min*min*ng/mL and 572297 min*min*ng/mL | AUMC_%Extrap_obs [2]: 98.6995% and 70.4945% and 33.5736% and 73.1636% | AUMC_%Extrap_pred [2]: 98.7124% and 67.5118% and 32.4931% and 73.2706% | AUMClast [2]: 21508.2 min*min*ng/mL and 46433.5 min*min*ng/mL and 96748.4 min*min*ng/mL and 82261.4 min*min*ng/mL and 152972 min*min*ng/mL and 128827 min*min*ng/mL | Cl_pred [2]: 73.467 L/h/kg and 251.944 L/h/kg and 349.943 L/h/kg and 158.758 L/h/kg | Clast [2]: 189.413 ng/mL and 386.792 ng/mL and 170.91 ng/mL and 80.8657 ng/mL and 243.534 ng/mL and 51.8385 ng/mL | Clast_pred [2]: 390.731 ng/mL and 148.651 ng/mL and 77.0106 ng/mL and 244.867 ng/mL | Cmax [2]: 214.033 ng/mL and 433.203 ng/mL and 507.425 ng/mL and 460.142 ng/mL and 479.909 ng/mL and 627.306 ng/mL | Cmax_D [2]: 4.281 kg·ng/mL/mg and 8.664 kg·ng/mL/mg and 10.1485 kg·ng/mL/mg and 9.203 kg·ng/mL/mg and 9.598 kg·ng/mL/mg and 12.5461 kg·ng/mL/mg | HL_Lambda_z [2]: 61.1667 min and 17.1328 min and 8.4476 min and 20.1128 min | Lambda_z [2]: 0.01133 min⁻¹ and 0.04046 min⁻¹ and 0.08205 min⁻¹ and 0.03446 min⁻¹ | MRTINF_obs [2]: 88.1868 min and 26.3212 min and 14.3667 min and 30.2266 min
